Reference: publication PMC11744668, “2-Cyanopyrimidine-Containing Molecules for N-Terminal Selective Cyclization of Phage-Displayed Peptides” (ACS Chemical Biology, 2025)

Legend:
CA5C-sfGFP = test: Cyclization of CA5C-sfGFP with linkers (LC-ESI-MS); settings: 100 μM linker, PBS pH 7.4, 1 mM TCEP; for cyclization of CA5C-sfGFP: 3 h, 22 °C (RT), 500 nM protein; for cyclization of CA5C-sfGFP, optimized (in words): 16 h
Procedure: The designed organic linkers were tested for their ability to cyclize a CA5C peptide expressed as an N-terminal fusion to sfGFP (CA5C-sfGFP). Following reduction of the protein with 1 mM TCEP for 30 min, 100 μM compounds were reacted with the reduced CA5C-sfGFP for 3 h in PBS (pH 7.4). Following the reaction, the protein was analyzed via electrospray ionization mass spectrometry (ESI-MS) analysis to determine the desired adduct and any potential side reactions that occurred. […] This is likely due to the electron withdrawing effects of the nitrogen atoms adjacent to the nitrile in the 2-cyanopyrimidine derivatives. […] Following previously established Bayesian deconvolution of the mass spectra,[23] protein masses from each reaction (MW = 28,399 Da) corresponded well with that of the expected cyclic product (MW = 28,399 Da). […] This observed mass matches a TCEP-conjugated product resulting from a previously reported competing phospha-Michael addition of TCEP to the acrylamide moiety.[24] This product has a TCEP-functionalized linker that is nonreactive toward the internal cysteine (Figure 2A,B). Following these initial studies, we then further optimized the cyclization of CA5C-sfGFP using pCAmCP and mCAmCP by varying the reaction time, temperature, and concentration of linkers (Figure 2C).
Purified CA5C-sfGFP was diluted to 500 nM in PBS (pH 7.4) containing 1 mM TCEP and left to incubate for 30 min at 37 °C. Linker (100 μM final concentration) or equivalent amounts of DMSO were then added to the solution, and it reacted at varying times (3 or 16 h) and temperatures (22 or 37 °C). All initial tests for reactivity were performed at 22 °C for 3 h, while linkers pCAmCP and mCAmCP were optimized with the additional conditions. The reaction mixtures were then concentrated and exchanged to ammonium bicarbonate (50 mM, pH 8.0) using an Amicon centrifugal filter (MWCO: 10 kDa). Samples were analyzed using a QExactive Orbitrap LC–MS System (Thermo Fisher) and deconvoluted using UniDec software.[23]

[1] = Specificity of linker reaction with BCP peptide (nucleophilic residues, no internal cysteine); settings: 500 µM BCP, 550 µM linker, 50 mM NH4HCO3, 1.2 mM TCEP, pH 7.5, 4 h
Text: While pCAmCP and mCAmCP gave efficient cyclization of the peptide fusion of sfGFP, we looked to further investigate the specificity of the reaction using peptide kinetic assays. To do this, we first established reactivity of the compounds with a model peptide (CGK-5, Figures 3A and S16) that was composed of two cysteines flanking a region tuned for solubility in buffer (GGKGG) and with a tryptophan residue on the C-terminus for UV absorbance. […] To test the specificity of the reaction for the N-terminal cysteine, we synthesized a peptide analogue (CGK-5Abu, Figures 3D–F and S17) that contained 2-aminobutyric acid in place of the N-terminal cysteine. […] Since these reactions occurred at 500 μM of peptide to allow for analysis on the HPLC, we envision this difference will likely be exaggerated when using lower peptide/protein concentrations. Although it is unlikely at neutral pH, the chloroacetamide moiety can possibly react with nucleophilic amino acids other than cysteine. To defuse this concern, we designed a peptide containing a variety of possibly nucleophilic residues (serine, arginine, tyrosine, histidine, and lysine, but not an internal cysteine) adjacent to the N-terminal cysteine (BCP, Figure S18) and let the peptide react with pCAmCP or mCAmCP. […]

| Structure (SMILES) | cyclization of CA5C-sfGFP (CA5C-sfGFP) [%] | cyclization of CA5C-sfGFP, optimized (in words) (CA5C-sfGFP) | specificity of chloroacetamide toward nucleophilic residues other than cysteine (in words) [1] |
| --- | --- | --- | --- |
| N#Cc1nccc(NC(=O)CCl)n1 [mCAmCP, 2-chloro-N-(2-cyanopyrimidin-4-yl)acetamide] | ~70 | nearly complete cyclization of CA5C-sfGFP with no significant side reactions observed | the chloroacetamide was left intact, with the only observed side reaction being the addition of TCEP to the chloroacetamide |
| N#Cc1ncc(NC(=O)CCl)cn1 [pCAmCP, 2-chloro-N-(2-cyanopyrimidin-5-yl)acetamide] | 50 | nearly complete cyclization of CA5C-sfGFP with no significant side reactions observed | the chloroacetamide was left intact, with the only observed side reaction being the addition of TCEP to the chloroacetamide |
